Values quoted from earlier work as cited in US20240238442A1, “LIPOSOMES DISPLAYING A GLYCAN LIGAND FOR CD33 AND THEIR USE IN THE TREATMENT OF ALZHEIMER'S DISEASE” (THE GOVERNORS OF THE UNIVERSITY OF ALBERTA, priority 2021, published 2024).

Molecular target: CD33 (Homo sapiens, UniProt P20138)
Settings: free ligand

CD33, sequence (P20138 18-364): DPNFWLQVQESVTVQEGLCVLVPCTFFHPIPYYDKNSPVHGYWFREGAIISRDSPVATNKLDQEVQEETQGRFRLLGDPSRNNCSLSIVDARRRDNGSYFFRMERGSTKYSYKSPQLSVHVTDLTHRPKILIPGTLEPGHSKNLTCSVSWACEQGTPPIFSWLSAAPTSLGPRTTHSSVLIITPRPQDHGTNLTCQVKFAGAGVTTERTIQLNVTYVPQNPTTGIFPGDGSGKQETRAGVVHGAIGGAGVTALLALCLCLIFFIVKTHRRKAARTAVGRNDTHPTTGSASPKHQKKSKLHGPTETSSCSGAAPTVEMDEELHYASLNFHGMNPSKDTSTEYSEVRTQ

**Q.** With `Cc1cc(C(=O)NC[C@@H](O)CC2O[C@@](OCC3OC(O[C@@H]4C(CO)O[C@@H](OCCN)C(O)C4O)C(O)C(O)[C@H]3O)(C(=O)O)CC(O)[C@H]2C(O)NC(=O)Cn2cc(C3CCCCC3)nn2)cc(C)c1O` (stereo partly shown) [CD33L] as the compound, how does the Kd read?
**A.** 87 µM
